# From patent publication US20170007608A1, “ACTIVATORS OF PYRUVATE KINASE M2 AND METHODS OF TREATING DISEASE” (AGIOS PHARMACEUTICALS, INC, priority 2011, published 2017)
# Target: PKM2 (Homo sapiens, UniProt P14618)
# Experiment: PKM2 Assay Procedure (LDH/NADH-coupled, absorbance at 340 nm)
# Format: biochemical
# Conditions: Table 1; PKM2 activation
# Experimental: B refers to an activator of PKM2 with an AC50 between 100 nM and 500 nM. C refers to an activator of PKM2 with an AC50 greater than 500 nM. AC50s described here in Tables 1 and 2 and FIGS. 1 and 2A-2D are measured according to the “PKM2 Assay Procedure” below.
# • PKM2 stock enzyme solution was diluted in Reaction Buffer • 2 μL of compound was added into each well first, and then 180 μL of the Reaction Mix was added. • Reaction mixture with compound (without ADP) were incubated for 30 minutes at 4° C. • Plates were re-equilibrated to room temperature prior to adding 20 μL ADP to initiate the reaction. • Reaction progress was measured as changes in absorbance at 340 nm wavelength at room temperature (25° C.)
# Chain of PKM2 (P14618 whole entry): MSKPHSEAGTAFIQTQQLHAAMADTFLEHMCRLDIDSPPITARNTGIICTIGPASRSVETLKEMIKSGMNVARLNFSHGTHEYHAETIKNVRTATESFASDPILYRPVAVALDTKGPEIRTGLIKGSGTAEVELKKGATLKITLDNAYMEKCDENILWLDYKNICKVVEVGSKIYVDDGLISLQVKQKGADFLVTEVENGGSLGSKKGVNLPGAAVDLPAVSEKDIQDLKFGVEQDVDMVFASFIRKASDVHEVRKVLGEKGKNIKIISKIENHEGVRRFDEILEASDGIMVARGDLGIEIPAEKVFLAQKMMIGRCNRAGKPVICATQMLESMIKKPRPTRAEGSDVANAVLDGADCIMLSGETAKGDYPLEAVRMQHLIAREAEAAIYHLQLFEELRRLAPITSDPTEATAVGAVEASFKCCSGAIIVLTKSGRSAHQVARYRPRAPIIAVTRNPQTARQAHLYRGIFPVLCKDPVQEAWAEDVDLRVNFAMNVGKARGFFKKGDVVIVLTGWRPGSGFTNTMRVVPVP
row,Compound,AC50 [nM]
1,Cc1cc2oc(=O)n(C)c2cc1S(=O)(=O)Nc1ccc(F)c(Cl)c1,< 100
2,COc1ccccc1N1CCN(C(=O)c2ccc(NS(=O)(=O)c3cccc4cccnc34)nc2)CC1,< 100
3,O=C(COc1ccc(-n2cnnn2)cc1)N1CCN(S(=O)(=O)c2ccc3ccccc3c2)CC1,100 to 500
4,O=S(=O)(Nc1ccc(F)c(Cl)c1)c1cncn1-c1cnccn1,< 100
5,O=C(c1ccc(NS(=O)(=O)c2ccc(Cl)cc2)cc1)N1CCN(c2ncccn2)CC1,> 500
6,COc1ccccc1CN1CCN(C(=O)c2ccc(NS(=O)(=O)c3cccc4cccnc34)cc2)CC1,< 100
7,O=C(c1ccc(NS(=O)(=O)c2cccc3cccnc23)cc1)N1CCN(Cc2cccnc2Cl)CC1,< 100
8,COc1ccccc1N1CCN(C(=O)c2ccc(NS(=O)(=O)c3ccc(Cl)c4nonc34)cc2)CC1,> 500
9,O=C(c1ccc(NS(=O)(=O)c2cccc3cccnc23)cc1)N1CCN(Cc2ccc(F)cc2)CC1,< 100
10,O=C(c1ccc(NS(=O)(=O)c2cccc3cccnc23)cc1)N1CCN(Cc2ccc(Cl)nc2)CC1,< 100
11,Nc1cccc(S(=O)(=O)N2CCCN(S(=O)(=O)c3cccc4c3OCCO4)CC2)c1,< 100
12,N#Cc1cccc(CN2CCN(C(=O)c3ccc(NS(=O)(=O)c4cccc5cccnc45)cc3)CC2)c1,< 100
13,COc1ccccc1N1CCN(C(=O)c2ccc(N(C)S(=O)(=O)c3cccc4cccnc34)cc2)CC1,< 100
14,Cc1cc(C)cc(NS(=O)(=O)c2cccn2-c2ncc(C(F)(F)F)cc2Cl)c1,< 100
15,COc1ccccc1N1CCN(C(=O)c2ccc(NS(=O)(=O)c3cccc4cccnc34)cc2)CC1,< 100
16,COc1cccc(CN2CCN(C(=O)c3ccc(NS(=O)(=O)c4cccc5cccnc45)cc3)CC2)c1,< 100
17,O=C(c1ccc(NS(=O)(=O)c2cccc3cccnc23)cc1)N1CCN(Cc2ccc(Br)cc2)CC1,< 100
18,Cc1cc2c(s1)c1cnn(Cc3ccccc3F)c(=O)c1n2C,< 100
19,O=S(=O)(Nc1ccccc1C(F)(F)F)c1cccn1-c1ncc(C(F)(F)F)cc1Cl,> 500
20,Cc1cc(C)cc(NS(=O)(=O)c2cccn2-c2ncccn2)c1,< 100
21,O=S(=O)(Nc1ccc2c(c1)OCCO2)c1cncn1-c1ccc(C(F)(F)F)cn1,> 500
22,Cc1cc(NS(=O)(=O)c2cnn(-c3cnccn3)c2)ccc1F,100 to 500
23,COc1ccccc1N1CCN(C(=O)c2ccc(NS(=O)(=O)c3ccc4ccccc4c3)cc2)CC1,> 500
24,O=S(=O)(Nc1ccc(Cl)cc1)c1cncn1-c1cnccn1,> 500
25,O=C(c1ccc(NS(=O)(=O)c2cccc3cccnc23)cc1)N1CCN(Cc2cccc(Cl)c2)CC1,< 100

row,Compound,AC50 [nM]
1,Cc1cc(C)cc(NS(=O)(=O)c2ccc3c(c2)oc(=O)n3C)c1,< 100
2,O=S(=O)(Nc1ccc(Cl)cc1)c1cccn1-c1ncc(C(F)(F)F)cc1Cl,< 100
3,O=S(=O)(Nc1cc(F)cc(F)c1)c1cccn1-c1ncc(C(F)(F)F)cc1Cl,> 500
4,CC(=O)c1ccc(CN2CCN(C(=O)c3ccc(NS(=O)(=O)c4cccc5cccnc45)cc3)CC2)cc1,100 to 500
5,O=C(c1ccc(NS(=O)(=O)c2cccc3cccnc23)cc1)N1CCN(Cc2ccccn2)CC1,< 100
6,O=C(c1ccc(NS(=O)(=O)c2cccc3cccnc23)cc1)N1CCN(c2ccccc2)CC1,< 100
7,Cc1cccc(NS(=O)(=O)c2cncn2-c2ncc(C(F)(F)F)cc2Cl)c1,< 100
8,N#Cc1ccc(CN2CCN(C(=O)c3ccc(NS(=O)(=O)c4cccc5cccnc45)cc3)CC2)cc1,< 100
9,Cc1cc(NS(=O)(=O)c2cccn2-c2ncc(C(F)(F)F)cc2Cl)ccc1F,< 100
10,COc1ccccc1N1CCCN(C(=O)c2ccc(NS(=O)(=O)c3cccc4cccnc34)cc2)CC1,> 500
11,Cc1cc2oc(=O)n(C)c2cc1S(=O)(=O)Nc1cc(F)cc(Cl)c1,> 500
12,Cc1cc(C)cc(NS(=O)(=O)c2ccnn2-c2ncc(C(F)(F)F)cc2Cl)c1,< 100
13,O=C(c1ccc(NS(=O)(=O)c2cccc3cccnc23)cc1)N1CCN(Cc2ccccc2Cl)CC1,< 100
14,O=S(=O)(c1ccc2c(c1)OCCO2)N1CCN(S(=O)(=O)c2c(F)cccc2F)CC1,< 100
15,Cn1c(=O)oc2cc(S(=O)(=O)Nc3cccc(Cl)c3)ccc21,< 100
16,O=S(=O)(Nc1ccc(F)cc1)c1cncn1-c1ccc(C(F)(F)F)cn1,> 500
17,CC(=O)c1ccccc1CN1CCN(C(=O)c2ccc(NS(=O)(=O)c3cccc4cccnc34)cc2)CC1,< 100
18,Cc1cc(C)cc(NS(=O)(=O)c2cncn2-c2ncc(C(F)(F)F)cc2Cl)c1,< 100
19,O=C(c1ccc(NS(=O)(=O)c2cccc3cccnc23)cc1)N1CCN(Cc2ccc(Cl)cc2)CC1,< 100
20,N#Cc1ccccc1CN1CCN(C(=O)c2ccc(NS(=O)(=O)c3cccc4cccnc34)cc2)CC1,< 100
21,O=C(c1ccc(NS(=O)(=O)c2cccc3cccnc23)cc1)N1CCN(Cc2ccccc2)CC1,< 100
22,Cc1cc2oc(=O)n(C)c2cc1S(=O)(=O)Nc1cccc(Cl)c1,100 to 500
23,O=S(=O)(Nc1ccc2c(c1)OCO2)c1cccn1-c1ncc(C(F)(F)F)cc1Cl,< 100
24,O=C(c1ccc(NS(=O)(=O)c2cccc3cccnc23)cc1)N1CCN(c2ncccn2)CC1,100 to 500
25,COc1ccccc1N1CCN(C(=O)c2ccc(NS(=O)(=O)c3ccc4c(c3)OCCO4)cc2)CC1,100 to 500

# Same assay, conditions: Table 2; PKM2 activation
row,Compound,AC50 [nM]
1,COc1ccc(Cl)cc1S(=O)(=O)Nc1ccc2sc(=O)n(C)c2c1,1000 to 10000
2,COc1ccc(Cl)cc1S(=O)(=O)Nc1ccc2oc(=O)n(C)c2c1 [drawing 91],< 1000
3,Cc1ccc(OCC(=O)N2CCN(S(=O)(=O)c3cc4oc(=O)n(C)c4cc3C)CC2)cc1,1000 to 10000
4,Cn1c(=O)oc2cc(NS(=O)(=O)c3cccs3)ccc21,10000 to 50000
5,COc1ccc(Cl)cc1S(=O)(=O)Nc1ccc2oc(=O)n(C)c2c1 [drawing 74],> 100000

# System: A549 cells
# Experiment: Growth inhibition (GI50) side-by-side in regular RPMI versus BME medium
# Format: cell-based
# Conditions: A549 cells treated for 72 hours
# Experimental: FIGS. 9A-9F are graphs depicting the effect of various cytotoxic agents on A549 cell growth in BME.
# Cells grown in BME media are not generally more sensitive to cytotoxic agents (FIGS. 9A-9F). A549 cells were grown in RPMI (FIG. 9A, 9B or 9C) or in BME (FIGS. 9D, 9E, and 9F). […] The effect of the PKM2 activators appears to by cytostatic (no induction of apoptosis).
row,Compound,potency of cytotoxic agent in BME compared with RPMI
1,COc1cccc2c1C(=O)c1c(O)c3c(c(O)c1C2=O)C[C@@](O)(C(=O)CO)C[C@@H]3O[C@H]1C[C@H](N)[C@H](O)[C@H](C)O1 [doxorubicin],decreased potency
2,CC(=O)O[C@@]12CO[C@@H]1C[C@H](O)[C@@]1(C)C(=O)[C@H](O)C3=C(C)[C@@H](OC(=O)[C@H](O)[C@@H](NC(=O)OC(C)(C)C)c4ccccc4)C[C@@](O)([C@@H](OC(=O)c4ccccc4)[C@H]21)C3(C)C [docetaxel],decreased potency
3,CC[C@]1(O)C[C@@H]2CN(CCc3c([nH]c4ccccc34)[C@@](C(=O)OC)(c3cc4c(cc3OC)N(C)[C@H]3[C@@](O)(C(=O)OC)[C@H](OC(C)=O)[C@]5(CC)C=CCN6CC[C@]43[C@@H]65)C2)C1 [vinblastine],decreased potency
